Blank lines part the entries; values can stand above or below the molecule they belong to.
What was measured:
physchem [1] = conditions: for solubility at 1 h: water, thermodynamic from solid
Procedure: To 100 mL of the liquid thus obtained, 100 mL of water was added and acetone was distilled off by concentration under reduced pressure to obtain a water dispersion of ultrafine particles of coenzyme Q10.
(§1) To 100 mL of the liquid thus obtained, 100 mL of water was added and acetone was distilled off by concentration under reduced pressure to obtain a water dispersion of ultrafine particles of busulfan. […] The solubility was measured in the same manner as in Example 1, except that busulfan was used in place of coenzyme Q10.
as §1, with “ethanol” for “acetone”, “docetaxel.” for “busulfan.”, “docetaxel” for “busulfan”
as §1, with “ethanol” for “acetone”, “paclitaxel.” for “busulfan.”, “paclitaxel” for “busulfan”
To 100 mL of the liquid thus obtained, 100 mL of water was added and ethanol was distilled off by concentration under reduced pressure to obtain a water dispersion of ultrafine particles of azadirachtin.
To 100 mL of the liquid thus obtained, 100 mL of 1-butanol was added and water was distilled off by concentration under reduced pressure to obtain a 1-butanol dispersion of ultrafine particles of ascorbic acid.

physchem [2] = conditions: 25 °C, organic solvent or mixture
[3] = Solubility in good solvent; conditions: for solubility: organic solvent or mixture

solubility at 1 h (physchem [1]; 20 °C): ≤ 0.1 mg/mL
solubility (physchem [2]): ≥ 30 mg/mL
SMILES: C/C=C(\C)C(=O)O[C@H]1C[C@@H](OC(C)=O)[C@@]2(C(=O)OC)CO[C@H]3[C@@H](O)[C@@](C)([C@]45O[C@@]4(C)[C@H]4C[C@@H]5O[C@@H]5OC=C[C@@]54O)[C@H]4[C@]1(CO[C@]4(O)C(=O)OC)[C@@H]32 [azadirachtin]

solubility at 1 h (physchem [1]; 25 °C): ≤ 0.01 mg/mL
solubility ([3]; acetone, 50 °C): ≥ 30 mg/mL
SMILES: CS(=O)(=O)OCCCCOS(C)(=O)=O [busulfan]

solubility in water (physchem [1]): ≤ 0.01 mg/mL
solubility in acetone ([3]; acetone, 25° C.): ≥ 30 mg/mL
SMILES: COC1=C(OC)C(=O)C(C/C=C(\C)CC/C=C(\C)CC/C=C(\C)CC/C=C(\C)CC/C=C(\C)CC/C=C(\C)CC/C=C(\C)CC/C=C(\C)CC/C=C(\C)CCC=C(C)C)=C(C)C1=O [coenzyme Q10]

solubility at 1 h (physchem [1]; 25 °C): ≤ 0.01 mg/mL
solubility ([3]; ethanol, 60 °C): ≥ 20 mg/mL
SMILES: CC(=O)O[C@@]12CO[C@@H]1C[C@H](O)[C@@]1(C)C(=O)[C@H](O)C3=C(C)[C@@H](OC(=O)[C@H](O)[C@@H](NC(=O)OC(C)(C)C)c4ccccc4)C[C@@](O)([C@@H](OC(=O)c4ccccc4)[C@H]21)C3(C)C [docetaxel]

solubility at 1 h (physchem [1]; 25 °C): ≤ 0.01 mg/mL
solubility ([3]; ethanol, 25 °C): ≥ 30 mg/mL
SMILES: CC(=O)O[C@H]1C(=O)[C@@]2(C)[C@H]([C@H](OC(=O)c3ccccc3)[C@]3(O)C[C@H](OC(=O)[C@H](O)[C@@H](NC(=O)c4ccccc4)c4ccccc4)C(C)=C1C3(C)C)[C@]1(OC(C)=O)CO[C@@H]1C[C@@H]2O [paclitaxel]

Reference: US20220387325A1, “METHOD FOR MANUFACTURING DISPERSION OF ULTRAFINE PARTICLES OF POORLY SOLUBLE SUBSTANCE” (NANO CUBE JAPAN CO., LTD., priority 2019, published 2022)
